Reference: patent publication US20260226414A1, “COMPOSITION FOR INDUCING DIFFERENTIATION OF MESENCHYMAL STEM CELLS INTO ADIPOCYTES” (ENCELL CO., LTD, priority 2023, published 2026)

Experiments:
Format in all cases: cell-based
[1] = system: human umbilical cord blood-derived mesenchymal stem cells (UCB-MSCs); test: Adipogenesis induction, Oil Red O staining quantification
Protocol: (§1) Specifically, for Oil Red O (Sigma-Aldrich, St. Louis, MO, USA) staining, after completion of differentiation, the culture medium was removed from each well of the plate, followed by washing twice with 1×PBS and then fixing with 4% paraformaldehyde (PFA) for 10 minutes. Washing three times with deionized water and then washing once with 60% isopropyl alcohol were performed. The Oil Red O stock solution was diluted with deionized water in a ratio of 3:2 to prepare an Oil Red O working solution, 1 ml of which was then added to each well of the plate followed by reaction at room temperature for 30 minutes. After washing once with 60% isopropyl alcohol and washing three times with deionized water, the red-stained oil droplets were observed and photographed under a microscope, and the results are shown in FIG. 4a.
(§2) Specifically, the stained oil droplets were dissolved in 100% isopropyl alcohol, and 100 μl of the result was transferred to each well of the 96-well plate, followed by measurement using a microplate reader (absorbance at 540 nm). […]
After inducing adipogenesis for 7, 14, and 21 days by treating human umbilical cord blood-derived mesenchymal stem cells (UCB-MSCs) with nervonic acid, the oil droplets stained by Oil Red O staining are shown in FIG. 8a, and the results of quantification of the stained oil droplets are shown in FIG. 8b.

[2] = system: human adipose-derived mesenchymal stem cells (AD-MSCs); test: qRT-PCR of adipogenesis markers at the mRNA level (2^-ΔΔCt); conditions: 160 μM, day 14, qRT-PCR
Protocol: After inducing adipogenesis for 14 days by treating human adipose-derived mesenchymal stem cells (AD-MSCs) with 160 μM nervonic acid, the gene expression of adipogenesis markers at the mRNA level was compared using qRT-PCR.
Specifically, RNA for qRT-PCR was extracted from mesenchymal stem cells with adipogenesis completed using TRIZOL from Invitrogen according to the method provided by the vendor, and cDNA was synthesized using SuperScript™ IV Reverse Transcriptase from Invitrogen. qRT-PCR was performed using the primers listed in Table 1 below, and the quantified results through 2^−ΔΔCt analysis are shown in FIG. 12.

[3] = system: human placenta-derived mesenchymal stem cells (PL-MSCs); test: Adipogenesis induction, Oil Red O staining quantification
Protocol: as §1, §2
After inducing adipogenesis for 7, 14, and 21 days by treating human placenta-derived mesenchymal stem cells (PL-MSCs) with nervonic acid, the oil droplets stained by Oil Red O staining are shown in FIG. 9a, and the results of quantification of the stained oil droplets are shown in FIG. 9b.

[4] = system: human adipose-derived mesenchymal stem cells (AD-MSCs); test: Western blotting of adipogenesis markers at the protein level; conditions: 160 μM, day 14, Western blotting
Protocol: After inducing adipogenesis for 14 days by treating human adipose-derived mesenchymal stem cells (AD-MSCs) with 160 μM nervonic acid, the expression of adipogenesis markers at the protein level was compared using Western blotting.
Specifically, protein for Western blotting was extracted from mesenchymal stem cells with adipogenesis completed using RIPA lysis buffer, and Western blotting was performed using the primary antibodies listed in Table 2 below.

[5] = system: human adipose-derived mesenchymal stem cells (AD-MSCs); test: Adipogenesis induction, Oil Red O staining and quantification (absorbance at 540 nm); conditions: for Oil Red O stained oil droplets, fold increase compared to DMSO-treated control group: 160 μM, three lots of AD-MSCs
Protocol: To determine the appropriate concentration of nervonic acid having excellent efficacy in promoting adipogenesis, adipogenesis was induced for 7 days by treating human adipose-derived mesenchymal stem cells with nervonic acid at different concentrations (0, 40, 80, 120, 160, 200, 240, 280 μM), followed by Oil Red O staining to confirm the stained oil droplets.
as §1
After inducing adipogenesis for 7 days by treating human adipose-derived mesenchymal stem cells with nervonic acid at different concentrations (0, 40, 80, 120, 160, 200, 240, 280 μM), the results of quantification of the oil droplets stained by Oil Red O staining are shown in FIG. 4b.
Specifically, the stained oil droplets were dissolved in 100% isopropyl alcohol, and 100 μl of the result was transferred to each well of the 96-well plate, followed by measurement using a microplate reader (absorbance at 540 nm). […] Nervonic acid (Sigma-Aldrich, St. Louis, MO, USA) was dissolved in DMSO and then stored at −80° C. before use.
Adipogenesis was induced for 7 days by treating a total of three lots of human adipose-derived mesenchymal stem cells (AD-MSCs) with 160 μM nervonic acid, followed by observation of the oil droplets stained by Oil Red O staining, and the results are shown in FIG. 5a.

[6] = system: human bone marrow-derived mesenchymal stem cells (BM-MSCs); test: Adipogenesis induction, Oil Red O staining quantification; conditions: 160 μM, days 7 and 14
Protocol: as §1, §2
After inducing adipogenesis for 7, 14, and 21 days by treating human bone marrow-derived mesenchymal stem cells (BM-MSC) with nervonic acid, the oil droplets stained by Oil Red O staining are shown in FIG. 11a, and the results of quantification of the stained oil droplets are shown in FIG. 11b.

[7] = system: human adipose-derived mesenchymal stem cells; test: Cell viability / cytotoxicity by Cell Counting Kit-8 (CCK-8); conditions: 0-280 μM nervonic acid, vs DMSO control
Protocol: The isolated human adipose-derived mesenchymal stem cells were treated with nervonic acid at different concentrations and cultured for 72 hours, after which cytotoxicity was measured. Specifically, Cell Counting Kit-8 (CCK-8, Dojindo, Tokyo, Japan) was used, and 1×10^3/well of cells were plated on a 96-well plate, stabilized for 24 hours, and then treated with nervonic acid at different concentrations (0, 40, 80, 120, 160, 200, 240, 280 μM), including the control group (DMSO), and cell viability was measured.
Before confirming the efficacy of nervonic acid to promote adipogenesis, cell viability was reconfirmed by treating cells with nervonic acid at various concentrations for 7 days. The specific method is the same as the method described above, and cell viability was measured by treatment with nervonic acid at different concentrations (0, 40, 80, 120, 160, 200, 240, 280 μM), including the control group (DMSO).

[8] = system: human adipose-derived mesenchymal stem cells; test: Observation of oil droplet formation after 72 hours of culture with nervonic acid; conditions: 72 hours treatment, different concentrations
Protocol: Human adipose-derived mesenchymal stem cells were treated with nervonic acid at different concentrations for 72 hours and cultured, after which the concentration at which oil droplets were generated was observed.

[9] = system: human umbilical cord-derived mesenchymal stem cells (WJ-MSCs); test: Adipogenesis induction, Oil Red O staining quantification
Protocol: as §1, §2
After inducing adipogenesis for 7, 14, and 21 days by treating human umbilical cord-derived mesenchymal stem cells (WJ-MSCs) with nervonic acid, the oil droplets stained by Oil Red O staining are shown in FIG. 10a, and the results of quantification of the stained oil droplets are shown in FIG. 10b.

[10] = system: human adipose-derived mesenchymal stem cells (AD-MSCs); test: Western blotting of adipogenesis-associated signaling molecules (phosphorylation ratios); conditions: 160 μM, day 14, Western blotting
Protocol: After inducing adipogenesis for 14 days by treating human adipose-derived mesenchymal stem cells (AD-MSCs) with 160 μM nervonic acid, the expression of adipogenesis-associated signaling molecules at the protein level was compared using Western blotting.
More specifically, protein for Western blotting was extracted using the same method as the extraction method described above, and Western blotting was performed using the primary antibodies listed in Table 3 below.

[11] = 160 μM, 7, 14 and 21 days (all cases)

SMILES: CCCCCCCC/C=C\CCCCCCCCCCCCCC(=O)O [nervonic acid]
- Oil Red O stained oil droplets, fold increase compared to DMSO control group [1, 11]: ≥ 2 fold
- Oil Red O stained oil droplets, fold increase compared to DMSO control group ([1]; 160 μM, day 21 (greatest)): 3.87±0.06 fold
- Adiponectin mRNA expression, fold increase compared to control group [2]: 1.37±0.19 fold
- LPL mRNA expression, fold increase compared to control group [2]: 1.44±0.12 fold
- PPARγ mRNA expression, fold increase compared to control group [2]: 1.74±0.35 fold
- c/EBPa mRNA expression, fold increase compared to control group [2]: 1.66±0.22 fold
- Oil Red O stained oil droplets, fold increase compared to DMSO control group [3, 11]: ≥ 2 fold
- Oil Red O stained oil droplets, fold increase compared to DMSO control group ([3]; 160 μM, day 21 (greatest)): 9.22±0.15 fold
- Adiponectin protein expression, fold increase compared to control group [4]: 2.35±0.55 fold
- C/EBPA protein expression, fold increase compared to control group [4]: 1.37±0.08 fold
- LPL protein expression, fold increase compared to control group [4]: 1.53±0.15 fold
- PPARγ protein expression, fold increase compared to control group [4]: 2.34±0.69 fold
- Oil Red O stained oil droplets, fold increase compared to DMSO-treated control group ([5]; 7 days): 2.13±0.27 fold
- Oil Red O stained oil droplets, fold increase compared to DMSO-treated control group ([5]; 14 days): 1.70±0.08 fold
- Oil Red O stained oil droplets, fold increase compared to DMSO-treated control group ([5]; 21 days): 1.27±0.14 fold
- concentration at which adipogenesis was most effectively induced (Oil Red O quantification) ([5]; 7 days adipogenesis, 0-280 μM tested): 160 µM
- adipogenesis (Oil Red O) compared to DMSO control group [6]: slightly increased
- cell viability (cytotoxicity) ([7]; 72 hours (3 days)): no significant difference in cell viability
- cell viability (cytotoxicity) ([7]; 7 days): no significant difference in cell viability
- concentration at which oil droplets were observed [8]: ≥ 160 µM
- Oil Red O stained oil droplets, fold increase compared to DMSO control group [9, 11]: ≥ 2 fold
- Oil Red O stained oil droplets, fold increase compared to DMSO control group ([9]; 160 μM, day 21 (greatest)): 5.61±0.23 fold
- AKT phosphorylation ratio (activation indicator), fold increase compared to control group [10]: 1.36±0.16 fold
- B-catenin phosphorylation ratio (inactivation indicator), fold increase compared to control group [10]: 1.39±0.06 fold
- mTOR phosphorylation ratio (activation indicator), fold increase compared to control group [10]: 1.34±0.14 fold
